Data as given in ChEMBL document CHEMBL3734724, “Anticancer efficacy of unique pyridine-based tetraindoles” (Eur J Med Chem, 2015).
Active and inactive are the calls of the source. The rule behind the calls is not given here.

Legend:
MDA-MB-231 [1] = assay: Cell cycle arrest in human MDA-MB-231 cells assessed as accumulation at G0/G1 phase at 0.4 uM after 24 hrs by propidium iodide staining-based flow cytometric analysis (reference value: 57 +/- 6%); type: functional
Mus musculus = assay: Toxicity in nude mouse xenografted with luciferase-expressing human MDA-MB-231 cells assessed as change in body weight at 10 to 25 mg/kg, ip administered every other day measured weekly up to day 54 relative to vehicle-treated control; type: organism-based; settings: in vivo
MDA-MB-231 [2] = assay: Upregulation of Bax protein expression in human MDA-MB-231 cells after 48 hrs by Western blot analysis; type: functional, cell-based
MDA-MB-231 [3] = assay: Cell cycle arrest in human MDA-MB-231 cells assessed as accumulation at G0/G1 phase at 0.8 uM after 24 hrs by propidium iodide staining-based flow cytometric analysis (reference value: 57 +/- 6%); type: functional
MDA-MB-231 [4] = assay: Antimetastatic activity against luciferase-expressing human MDA-MB-231 cells xenografted in nude mouse assessed as suppression of lung metastasis by measuring reduction of lung weight at 25 mg/kg, ip administered every other day measured on day 54 relative to vehicle-treated control; type: functional; parameters: scale not given: the % may be the effect or the level left
MDA-MB-231 [5] = assay: Cell cycle arrest in human MDA-MB-231 cells assessed as accumulation at S phase at 0.8 uM after 48 hrs by propidium iodide staining-based flow cytometric analysis (reference value: 26 +/- 3%); type: functional
MDA-MB-231 [6] = assay: Cell cycle arrest in human MDA-MB-231 cells assessed as accumulation at sub-G1 phase at 0.4 uM after 24 hrs by propidium iodide staining-based flow cytometric analysis relative to control; type: functional
[7] = Cytotoxicity against human Hs578T cells assessed as growth inhibition at 20 uM after 48 hrs by MTT assay relative to control; type: functional; settings: Hs-578T, read-out: GI
MDA-MB-231 [8] = assay: Cell cycle arrest in human MDA-MB-231 cells assessed as accumulation at S phase at 0.4 uM after 48 hrs by propidium iodide staining-based flow cytometric analysis (reference value: 26 +/- 3%); type: functional
[9] = Ratio of compound IC50 to SK228 IC50 for human M10 cells; type: ADME, cell-based; settings: read-out: Ratio IC50
MDA-MB-231 [10] = assay: Cytotoxicity against human MDA-MB-231 cells assessed as growth inhibition after 48 hrs by MTT assay; type: functional, cell-based; settings: MDA-MB-231, 48 h
MDA-MB-231 [11] = assay: Cell cycle arrest in human MDA-MB-231 cells assessed as accumulation at S phase at 0.8 uM after 24 hrs by propidium iodide staining-based flow cytometric analysis (reference value: 32 +/- 4%); type: functional
MDA-MB-231 [12] = assay: Induction of apoptosis in human MDA-MB-231 cells assessed as DNA ladder formation at 0.4 to 3.2 uM after 24 hrs; type: functional, cell-based
MDA-MB-231 [13] = assay: Cell cycle arrest in human MDA-MB-231 cells assessed as accumulation at G2/M phase at 0.4 uM after 24 hrs by propidium iodide staining-based flow cytometric analysis (reference value: 12 +/- 2%); type: functional
MDA-MB-231 [14] = assay: Induction of apoptosis in human MDA-MB-231 cells assessed as DNA ladder formation at 0.2 to 3.2 uM after 48 hrs; type: functional, cell-based
MDA-MB-231 [15] = assay: Cell cycle arrest in human MDA-MB-231 cells assessed as accumulation at G2/M phase at 1.6 uM after 24 hrs by propidium iodide staining-based flow cytometric analysis (reference value: 12 +/- 2%); type: functional
[16] = Cytotoxicity against human BT549 cells assessed as growth inhibition after 48 hrs by MTT assay; type: functional, cell-based; settings: BT-549, 48 h
MDA-MB-231 [17] = assay: Upregulation of phosphorylated chk2 protein expression in human MDA-MB-231 cells after 48 hrs by Western blot analysis; type: functional, cell-based
MDA-MB-231 [18] = assay: Cell cycle arrest in human MDA-MB-231 cells assessed as accumulation at G2/M phase at 1.6 uM after 48 hrs by propidium iodide staining-based flow cytometric analysis (reference value: 16 +/- 3%); type: functional
MDA-MB-231 [19] = assay: Cell cycle arrest in human MDA-MB-231 cells assessed as accumulation at G2/M phase at 0.4 uM after 48 hrs by propidium iodide staining-based flow cytometric analysis (reference value: 16 +/- 3%); type: functional
MDA-MB-231 [20] = assay: Antitumor activity against luciferase-expressing human MDA-MB-231 cells xenografted in ip dosed nude mouse assessed as tumor growth inhibition administered every other day measured on day 54; type: functional, organism-based
MDA-MB-231 [21] = assay: Downregulation of Bcl-xL protein expression in human MDA-MB-231 cells after 48 hrs by Western blot analysis; type: functional, cell-based
MDA-MB-231 [22] = assay: Cell cycle arrest in human MDA-MB-231 cells assessed as accumulation at sub-G1 phase at 0.8 uM after 24 hrs by propidium iodide staining-based flow cytometric analysis relative to control; type: functional
MDA-MB-231 [23] = assay: Antimetastatic activity against luciferase-expressing human MDA-MB-231 cells xenografted in ip dosed nude mouse assessed as reduction of lung metastasis administered every other day measured on day 54; type: functional, organism-based
MDA-MB-231 [24] = assay: Cell cycle arrest in human MDA-MB-231 cells assessed as accumulation at sub-G1 phase at 0.8 uM after 48 hrs by propidium iodide staining-based flow cytometric analysis relative to control; type: functional
[25] = Cytotoxicity against human Hs578T cells assessed as growth inhibition after 48 hrs by MTT assay; type: functional, cell-based; settings: Hs-578T
MDA-MB-231 [26] = assay: Antitumor activity against luciferase-expressing human MDA-MB-231 cells xenografted in nude mouse assessed as tumor growth inhibition at 25 mg/kg, ip administered every other day measured on day 54 relative to vehicle-treated control; type: functional; settings: MDA-MB-231, ip, 1296 h, read-out: TGI
MDA-MB-231 [27] = assay: Cell cycle arrest in human MDA-MB-231 cells assessed as accumulation at G2/M phase after 48 hrs by propidium iodide staining-based flow cytometric analysis; type: functional
MDA-MB-231 [28] = assay: Cell cycle arrest in human MDA-MB-231 cells assessed as accumulation at G0/G1 phase at 0.4 uM after 48 hrs by propidium iodide staining-based flow cytometric analysis (reference value: 57.8 +/- 0.7%); type: functional
MDA-MB-231 [29] = assay: Cell cycle arrest in human MDA-MB-231 cells assessed as accumulation at G0/G1 phase at 1.6 uM after 48 hrs by propidium iodide staining-based flow cytometric analysis (reference value: 57.8 +/- 0.7%); type: functional
MDA-MB-231 [30] = assay: Cell cycle arrest in human MDA-MB-231 cells assessed as accumulation at G2/M phase at 0.8 uM after 24 hrs by propidium iodide staining-based flow cytometric analysis (reference value: 12 +/- 2%); type: functional
MDA-MB-231 [31] = assay: Cell cycle arrest in human MDA-MB-231 cells assessed as accumulation at sub-G1 phase at 1.6 uM after 24 hrs by propidium iodide staining-based flow cytometric analysis relative to control; type: functional
[32] = Cytotoxicity against human M10 cells assessed as growth inhibition at 20 uM after 48 hrs by MTT assay relative to control; type: cell-based; settings: read-out: GI
MDA-MB-231 [33] = assay: Cell cycle arrest in human MDA-MB-231 cells assessed as accumulation at S phase at 0.4 uM after 24 hrs by propidium iodide staining-based flow cytometric analysis (reference value: 32 +/- 4%); type: functional
MDA-MB-231 [34] = assay: Downregulation of cyclin A protein expression in human MDA-MB-231 cells at 0.4 to 3.2 uM after 48 hrs by Western blot analysis relative to control; type: functional, cell-based

In the case of `Oc1ccc2[nH]cc(C(c3ccc(C(c4c[nH]c5ccc(O)cc45)c4c[nH]c5ccc(O)cc45)nc3)c3c[nH]c4ccc(O)cc34)c2c1`, the Activity (MDA-MB-231 [1]) is reported as 53%, the Activity (Mus musculus) is reported as “Non-toxic” and the Activity (MDA-MB-231 [2]) is reported as “Dose-dependent effect”. It also gave an Activity (MDA-MB-231 [3]) of 54%, an Activity (MDA-MB-231 [4]) of 22% and an Activity (MDA-MB-231 [5]) of 29%. It also gave an Activity (MDA-MB-231 [6]) of 0.1%, an inhibition of growth at 20 µM [7] of 25% and an Activity (MDA-MB-231 [8]) of 28%. For the same molecule, the selectivity ratio [9] was 4, the IC50 (MDA-MB-231 [10]) was 0.8 µM and the Activity (MDA-MB-231 [11]) was 31%. The Activity (MDA-MB-231 [12]) was “inactive”, the Activity (MDA-MB-231 [13]) was 13.2% and the Activity (MDA-MB-231 [14]) was “Active”. The Activity (MDA-MB-231 [15]) was 20%, the IC50 [16] was 4 µM and the Activity (MDA-MB-231 [17]) was “Dose-dependent effect”. The Activity (MDA-MB-231 [18]) was 24%, the Activity (MDA-MB-231 [19]) was 18% and the TGI (MDA-MB-231 [20]) was “Dose-dependent effect”. For the same molecule, the Activity (MDA-MB-231 [21]) was “Dose-dependent effect”, the Activity (MDA-MB-231 [22]) was 1.5% and the Activity (MDA-MB-231 [23]) was “Dose-dependent effect”. It also gave an Activity (MDA-MB-231 [24]) of 12%, an IC50 [25] greater than 20 µM and an inhibition in vivo at 25 mg/kg (MDA-MB-231 [26]) of 70%. For the same molecule, the Activity (MDA-MB-231 [27]) was “Dose-dependent effect”, the Activity (MDA-MB-231 [28]) was 54% and the Activity (MDA-MB-231 [29]) was 45%. The Activity (MDA-MB-231 [30]) was 14.7%, the Activity (MDA-MB-231 [31]) was 16% and the inhibition at 48 h, 20 µM [32] was 37%. For the same molecule, the Activity (MDA-MB-231 [33]) was 33% and the Activity (MDA-MB-231 [34]) was “Active”.
